# How the values were obtained:
# allophilic antibodies = experiment: Formation of allophilic antibodies after heart transplantation (Brown-Norway to Lewis rats), complement cytotoxicity on donor spleen cells, Trypan Blue exclusion; format: in vivo
# Protocol: The action of compound 2 on the formation of allophilic antibodies.
# Male Brown-Norway rats with a weight of 200 to 250 g are used as heart donors. The hearts are transplanted into male Lewis rats of the same weight. All rats are supplied with a standard diet and water and kept in an environment with 12 hours of light and darkness.
# […] The titer of allophilic antibodies in the blood of the recipient rats is determined by incubating various dilutions of the recipient blood with spleen cells of the donor rats (Brown-Norway rats) and rabbit complement. The cytotoxicity is determined by the Trypan Blue exclusion method. The p value for the antibodies is determined using the standard t-test and compared with the untreated control animals.
# Treatment with compound 2 begins on the 4th day after transplantation. 10 mg/kg of compound 2 in each case are administered i.p. once per day. The number of animals which are simultaneously treated is 5 (n=5). Treatment ends on the 17th day.
# in vivo = settings: ip
# Protocol: Acute Toxicity after Intraperitoneal Administration
# The acute toxicity after intraperitoneal administration of the test substances was determined with NMRI mice (20 to 25 g) and SD rats (120 to 195 g). The test substance was suspended in a 1% strength sodium carboxymethyl-cellulose solution. The different dosages of the test substance were administered to the mice in a volume of 10 ml/kg of body weight and to the rats in a volume of 5 ml/kg of body weight. Per dosage, 10 animals were used. After 3 weeks, the acute toxicity was determined by the method of Litchfield and Wilcoxon.
# [1] = system: naturally occurring xenophilic antibodies (NXA); experiment: Naturally occurring xenophilic antibodies (NXA) in non-sensitized rats, flow cytometry; format: in vivo; settings: non-sensitized LEW rats, 10 mg/kg every day i.p., 11th day
# Protocol: 2 to 3 month-old rats (LEW) are intraperitoneally (i.p.) sensitized with 2×10^7 human peripheral blood lymphocytes. The i.p. administration of compound 2 starts 4 days before sensitization and ends 10 days after sensitization of the rats. Serum samples are taken from the tail vein and stored at −80° C.; the activity of complement is avoided by heat deactivation.
# The naturally occurring xenophilic antibodies (NXA) and the xenophilic antibodies induced by sensitization (SXA) are titrated and live human peripheral blood lymphocytes are added (45 min. at 20° C.). After intensive washing, FITC-labeled goat-anti-rat IgG or IgM antibodies are added and the binding to SXA or NXA is quantitatively determined by flow cytometry (FACScan, Becton Dickinson).
# The serum of male LEW rats contain NXA which bind to vital human peripheral blood lymphocytes, to be precise usually with an average IgM titer of 1:4 and an average IgG titer of less than 1:1. The rats (n=8) which are treated every day with 10 mg/kg of compound 2, show a 30% reduction in their IgG titer and a 50% reduction in their IgM titer on the 11th day.
smiles,measurement,setting,value
"C/C(O)=C(\C#N)C(=O)Nc1ccc(C(F)(F)F)cc1 [Compound 2, N-(4-trifluoromethylphenyl)-2-cyano-3-hydroxycrotonamide]",mean of the cytotoxicity values,"allophilic antibodies; serum dilution 1:5, day 0 after transplantation (before treatment start on day 4), 10 mg/kg i.p. once per day",3%
same,mean of the cytotoxicity values,"allophilic antibodies; serum dilution 1:5, day 4 after transplantation (treatment begins), 10 mg/kg i.p. once per day",63%
same,mean of the cytotoxicity values,"allophilic antibodies; serum dilution 1:5, day 7 after transplantation, 10 mg/kg i.p. once per day from day 4",36%
same,mean of the cytotoxicity values,"allophilic antibodies; serum dilution 1:5, day 11 after transplantation, 10 mg/kg i.p. once per day from day 4",19%
same,mean of the cytotoxicity values,"allophilic antibodies; serum dilution 1:5, day 14 after transplantation, 10 mg/kg i.p. once per day from day 4",22%
same,mean of the cytotoxicity values,"allophilic antibodies; serum dilution 1:5, day 17 after transplantation, 10 mg/kg i.p. once per day from day 4",11%
same,mean of the cytotoxicity values,"allophilic antibodies; serum dilution 1:25, day 0 after transplantation (before treatment start on day 4), 10 mg/kg i.p. once per day",3%
same,mean of the cytotoxicity values,"allophilic antibodies; serum dilution 1:25, day 4 after transplantation (treatment begins), 10 mg/kg i.p. once per day",58%
same,mean of the cytotoxicity values,"allophilic antibodies; serum dilution 1:25, day 7 after transplantation, 10 mg/kg i.p. once per day from day 4",31%
same,mean of the cytotoxicity values,"allophilic antibodies; serum dilution 1:25, day 11 after transplantation, 10 mg/kg i.p. once per day from day 4",16%
same,mean of the cytotoxicity values,"allophilic antibodies; serum dilution 1:25, day 14 after transplantation, 10 mg/kg i.p. once per day from day 4",11%
same,mean of the cytotoxicity values,"allophilic antibodies; serum dilution 1:25, day 17 after transplantation, 10 mg/kg i.p. once per day from day 4",6%
same,mean of the cytotoxicity values,"allophilic antibodies; serum dilution 1:125, day 0 after transplantation (before treatment start on day 4), 10 mg/kg i.p. once per day",4%
same,mean of the cytotoxicity values,"allophilic antibodies; serum dilution 1:125, day 4 after transplantation (treatment begins), 10 mg/kg i.p. once per day",34%
same,mean of the cytotoxicity values,"allophilic antibodies; serum dilution 1:125, day 7 after transplantation, 10 mg/kg i.p. once per day from day 4",20%
same,mean of the cytotoxicity values,"allophilic antibodies; serum dilution 1:125, day 11 after transplantation, 10 mg/kg i.p. once per day from day 4",9%
same,mean of the cytotoxicity values,"allophilic antibodies; serum dilution 1:125, day 14 after transplantation, 10 mg/kg i.p. once per day from day 4",6%
same,mean of the cytotoxicity values,"allophilic antibodies; serum dilution 1:125, day 17 after transplantation, 10 mg/kg i.p. once per day from day 4",5%
same,LD50 at 3 weeks,"in vivo; NMRI, mouse",150 mg/kg
same,reduction in IgG titer (NXA),[1],30%
same,reduction in IgM titer (NXA),[1],50%
"Cc1oncc1C(=O)Nc1ccc(C(F)(F)F)cc1 [Compound 1, N-(4-trifluoromethyl)-5-methylisoxazole-4-carboxanilide]",LD50 at 3 weeks,"in vivo; NMRI, mouse",185 mg/kg
same,LD50 at 3 weeks,"in vivo; SD, rat",170 mg/kg
